Experimental data taken from patent publication US20230212180A1, “SUBSTITUTED PYRAZINE COMPOUND, PHARMACEUTICAL COMPOSITION COMPRISING SAME, AND USE THEREOF” (Sichuan Kelun-Biotech Biopharmaceutical Co., Ltd., priority 2020, published 2023).
Positions count from the first letter of the chain named.

Tests used:
Assay in all cases: Kinase selectivity test (ThermoFisher)
Type in all cases: biochemical
Design in all cases: concentration or dose not given beside the values
AAK1 = molecular target: T1, AAK1 (Homo sapiens, UniProt Q2M2I8)
T1 construct: purchased ThermoFisher USA (contract testing)
Description: (§1) Test Example 11: Kinase Selectivity Test
(§2) 1. Experimental Purpose: Tests for selectivity of the compounds of the present disclosure for a plurality of kinases were carried out to assess the safety risk of the compounds of the present disclosure.
(§3) 2. Test institution: ThermoFisher USA
(§4) 3. Testing methods: LanthaScreen binding, Z′-LYTE, Adapta
(§5) 4. Test targets: 100 targets in total

FLT3 = molecular target: T2, FLT3 (Homo sapiens, UniProt P36888)
T2 construct: purchased ThermoFisher USA (contract testing)
T2 sequence (P36888 27-993): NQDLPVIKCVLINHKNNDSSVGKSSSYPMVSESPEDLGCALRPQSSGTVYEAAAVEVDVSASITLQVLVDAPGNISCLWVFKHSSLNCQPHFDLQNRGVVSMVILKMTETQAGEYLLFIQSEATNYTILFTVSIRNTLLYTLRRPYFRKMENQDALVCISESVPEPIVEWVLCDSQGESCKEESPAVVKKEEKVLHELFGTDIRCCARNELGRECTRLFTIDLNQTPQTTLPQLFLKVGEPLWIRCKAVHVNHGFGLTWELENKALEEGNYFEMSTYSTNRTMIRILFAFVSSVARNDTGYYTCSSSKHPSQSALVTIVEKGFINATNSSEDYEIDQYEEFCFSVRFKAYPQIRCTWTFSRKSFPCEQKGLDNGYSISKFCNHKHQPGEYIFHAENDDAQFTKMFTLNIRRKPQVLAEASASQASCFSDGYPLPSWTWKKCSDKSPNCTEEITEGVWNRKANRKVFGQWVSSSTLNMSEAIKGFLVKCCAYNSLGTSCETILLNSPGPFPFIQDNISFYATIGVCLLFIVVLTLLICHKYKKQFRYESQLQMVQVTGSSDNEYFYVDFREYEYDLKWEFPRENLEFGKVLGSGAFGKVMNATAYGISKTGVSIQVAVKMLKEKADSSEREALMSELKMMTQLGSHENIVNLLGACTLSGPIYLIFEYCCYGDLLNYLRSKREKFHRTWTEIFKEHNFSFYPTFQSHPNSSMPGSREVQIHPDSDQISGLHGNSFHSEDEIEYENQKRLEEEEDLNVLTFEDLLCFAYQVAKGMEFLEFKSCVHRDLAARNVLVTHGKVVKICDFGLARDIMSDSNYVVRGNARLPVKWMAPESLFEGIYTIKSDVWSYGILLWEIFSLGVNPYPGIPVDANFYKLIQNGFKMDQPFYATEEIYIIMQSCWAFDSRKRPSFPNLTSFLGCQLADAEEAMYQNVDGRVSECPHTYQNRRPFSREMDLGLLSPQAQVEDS
Description: as §1, §2, §3, §4, §5

MET (cMet) = molecular target: T3, MET (cMet) (Homo sapiens, UniProt P08581)
T3 construct: purchased ThermoFisher USA (contract testing)
Description: as §1, §2, §3, §4, §5

FLT3 D835Y = molecular target: T4, FLT3 D835Y (Homo sapiens, UniProt P36888, D835Y)
T4 construct: purchased ThermoFisher USA (contract testing)
T4 sequence (P36888 27-993 D835Y): T2 sequence (P36888 27-993) with D809Y
Description: as §1, §2, §3, §4, §5

GSK3A (GSK3 alpha) = molecular target: T5, GSK3A (GSK3 alpha) (Homo sapiens, UniProt P49840)
T5 construct: purchased ThermoFisher USA (contract testing)
Description: as §1, §2, §3, §4, §5

CAMK1 (CaMK1) = molecular target: T6, CAMK1 (CaMK1) (Homo sapiens, UniProt Q14012)
T6 construct: purchased ThermoFisher USA (contract testing)
Description: as §1, §2, §3, §4, §5

MAPKAPK2 = molecular target: T7, MAPKAPK2 (Homo sapiens, UniProt P49137)
T7 construct: purchased ThermoFisher USA (contract testing)
Description: as §1, §2, §3, §4, §5

GSK3B (GSK3 beta) = molecular target: T8, GSK3B (GSK3 beta) (Homo sapiens, UniProt P49841)
T8 construct: purchased ThermoFisher USA (contract testing)
Description: as §1, §2, §3, §4, §5

GRK4 = molecular target: T9, GRK4 (Homo sapiens, UniProt P32298)
T9 construct: purchased ThermoFisher USA (contract testing)
Description: as §1, §2, §3, §4, §5

T9 sequence (P32298 whole entry): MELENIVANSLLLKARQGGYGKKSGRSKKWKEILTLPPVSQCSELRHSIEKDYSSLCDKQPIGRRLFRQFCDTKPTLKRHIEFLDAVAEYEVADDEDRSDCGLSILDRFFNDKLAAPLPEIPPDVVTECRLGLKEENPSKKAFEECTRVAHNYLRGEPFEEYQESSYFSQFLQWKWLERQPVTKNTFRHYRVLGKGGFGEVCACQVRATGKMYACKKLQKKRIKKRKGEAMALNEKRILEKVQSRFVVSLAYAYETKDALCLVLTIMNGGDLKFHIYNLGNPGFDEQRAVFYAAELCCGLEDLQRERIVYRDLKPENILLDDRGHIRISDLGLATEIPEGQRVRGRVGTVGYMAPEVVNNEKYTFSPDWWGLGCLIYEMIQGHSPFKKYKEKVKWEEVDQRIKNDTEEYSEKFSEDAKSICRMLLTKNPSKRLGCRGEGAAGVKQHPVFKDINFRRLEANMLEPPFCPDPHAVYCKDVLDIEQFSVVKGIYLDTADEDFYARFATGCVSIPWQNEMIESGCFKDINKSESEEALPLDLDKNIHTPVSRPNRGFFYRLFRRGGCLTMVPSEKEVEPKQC
T6 sequence (Q14012 whole entry): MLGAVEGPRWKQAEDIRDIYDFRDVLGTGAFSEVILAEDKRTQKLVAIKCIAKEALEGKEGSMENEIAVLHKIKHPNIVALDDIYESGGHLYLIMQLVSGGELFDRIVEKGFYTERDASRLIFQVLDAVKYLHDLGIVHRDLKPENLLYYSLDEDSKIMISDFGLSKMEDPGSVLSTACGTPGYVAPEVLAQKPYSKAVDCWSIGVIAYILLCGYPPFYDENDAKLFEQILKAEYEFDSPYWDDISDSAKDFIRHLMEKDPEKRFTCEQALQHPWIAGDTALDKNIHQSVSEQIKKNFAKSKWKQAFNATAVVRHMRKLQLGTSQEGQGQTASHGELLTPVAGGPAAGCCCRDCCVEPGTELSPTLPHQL
T5 sequence (P49840 whole entry): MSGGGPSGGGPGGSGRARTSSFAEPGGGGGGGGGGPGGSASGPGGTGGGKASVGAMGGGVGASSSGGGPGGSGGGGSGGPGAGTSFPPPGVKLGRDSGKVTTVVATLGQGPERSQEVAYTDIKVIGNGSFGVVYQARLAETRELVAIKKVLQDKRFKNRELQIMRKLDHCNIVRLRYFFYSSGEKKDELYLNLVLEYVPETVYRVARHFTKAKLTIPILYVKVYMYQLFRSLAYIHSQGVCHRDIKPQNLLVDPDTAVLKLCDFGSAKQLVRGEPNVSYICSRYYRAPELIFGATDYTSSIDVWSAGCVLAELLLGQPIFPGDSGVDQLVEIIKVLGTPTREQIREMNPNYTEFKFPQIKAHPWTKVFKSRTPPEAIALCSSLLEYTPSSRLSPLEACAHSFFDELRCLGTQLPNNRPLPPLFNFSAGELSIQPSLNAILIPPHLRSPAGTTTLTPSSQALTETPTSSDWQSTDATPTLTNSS
T8 sequence (P49841 whole entry): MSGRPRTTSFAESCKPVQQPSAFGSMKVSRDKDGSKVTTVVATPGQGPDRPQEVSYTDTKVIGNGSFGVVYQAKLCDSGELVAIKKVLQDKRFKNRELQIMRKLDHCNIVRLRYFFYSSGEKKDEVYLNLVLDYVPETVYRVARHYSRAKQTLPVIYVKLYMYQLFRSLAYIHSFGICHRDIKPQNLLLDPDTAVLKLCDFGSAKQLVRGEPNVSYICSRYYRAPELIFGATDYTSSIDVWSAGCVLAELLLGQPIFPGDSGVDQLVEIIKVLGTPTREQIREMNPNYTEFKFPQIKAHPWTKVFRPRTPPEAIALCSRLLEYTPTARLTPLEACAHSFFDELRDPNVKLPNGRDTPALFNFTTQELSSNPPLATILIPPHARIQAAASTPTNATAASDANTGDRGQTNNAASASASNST
T3 sequence (P08581 25-1390): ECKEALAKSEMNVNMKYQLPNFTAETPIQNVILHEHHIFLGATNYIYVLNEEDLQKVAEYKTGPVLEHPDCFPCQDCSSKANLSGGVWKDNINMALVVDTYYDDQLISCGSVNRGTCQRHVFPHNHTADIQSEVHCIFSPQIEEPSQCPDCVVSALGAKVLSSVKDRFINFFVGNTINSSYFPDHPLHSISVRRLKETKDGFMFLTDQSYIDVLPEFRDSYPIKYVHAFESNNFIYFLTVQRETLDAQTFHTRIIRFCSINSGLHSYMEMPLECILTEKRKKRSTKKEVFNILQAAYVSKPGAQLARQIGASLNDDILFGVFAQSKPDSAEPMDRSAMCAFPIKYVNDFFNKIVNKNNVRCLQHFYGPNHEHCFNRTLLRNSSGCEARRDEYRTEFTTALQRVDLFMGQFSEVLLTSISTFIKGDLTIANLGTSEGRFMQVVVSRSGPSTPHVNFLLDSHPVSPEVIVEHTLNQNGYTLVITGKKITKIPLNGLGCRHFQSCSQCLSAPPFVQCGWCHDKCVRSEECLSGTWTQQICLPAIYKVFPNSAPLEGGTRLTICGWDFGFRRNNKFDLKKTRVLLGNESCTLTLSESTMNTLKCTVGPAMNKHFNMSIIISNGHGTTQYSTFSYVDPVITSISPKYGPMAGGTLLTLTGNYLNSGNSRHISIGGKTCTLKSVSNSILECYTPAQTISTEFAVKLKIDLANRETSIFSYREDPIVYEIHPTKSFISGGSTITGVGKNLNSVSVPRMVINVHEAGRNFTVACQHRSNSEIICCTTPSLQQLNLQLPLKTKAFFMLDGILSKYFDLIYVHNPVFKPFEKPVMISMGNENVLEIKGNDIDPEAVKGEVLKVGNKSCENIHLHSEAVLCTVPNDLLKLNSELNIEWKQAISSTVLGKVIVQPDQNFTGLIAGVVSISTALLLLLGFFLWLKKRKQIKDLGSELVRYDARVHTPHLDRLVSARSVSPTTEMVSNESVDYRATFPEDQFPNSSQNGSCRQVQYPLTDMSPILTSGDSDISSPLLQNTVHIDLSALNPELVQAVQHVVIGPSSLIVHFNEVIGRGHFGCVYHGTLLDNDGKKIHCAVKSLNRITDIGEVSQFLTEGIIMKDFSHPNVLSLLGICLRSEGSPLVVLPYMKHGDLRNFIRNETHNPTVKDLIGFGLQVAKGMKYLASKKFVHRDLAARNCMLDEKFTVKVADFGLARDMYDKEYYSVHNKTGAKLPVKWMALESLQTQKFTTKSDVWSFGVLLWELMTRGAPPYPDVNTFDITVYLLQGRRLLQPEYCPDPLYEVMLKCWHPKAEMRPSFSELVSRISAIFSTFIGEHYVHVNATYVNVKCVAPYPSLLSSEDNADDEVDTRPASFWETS
T1 sequence (Q2M2I8 whole entry): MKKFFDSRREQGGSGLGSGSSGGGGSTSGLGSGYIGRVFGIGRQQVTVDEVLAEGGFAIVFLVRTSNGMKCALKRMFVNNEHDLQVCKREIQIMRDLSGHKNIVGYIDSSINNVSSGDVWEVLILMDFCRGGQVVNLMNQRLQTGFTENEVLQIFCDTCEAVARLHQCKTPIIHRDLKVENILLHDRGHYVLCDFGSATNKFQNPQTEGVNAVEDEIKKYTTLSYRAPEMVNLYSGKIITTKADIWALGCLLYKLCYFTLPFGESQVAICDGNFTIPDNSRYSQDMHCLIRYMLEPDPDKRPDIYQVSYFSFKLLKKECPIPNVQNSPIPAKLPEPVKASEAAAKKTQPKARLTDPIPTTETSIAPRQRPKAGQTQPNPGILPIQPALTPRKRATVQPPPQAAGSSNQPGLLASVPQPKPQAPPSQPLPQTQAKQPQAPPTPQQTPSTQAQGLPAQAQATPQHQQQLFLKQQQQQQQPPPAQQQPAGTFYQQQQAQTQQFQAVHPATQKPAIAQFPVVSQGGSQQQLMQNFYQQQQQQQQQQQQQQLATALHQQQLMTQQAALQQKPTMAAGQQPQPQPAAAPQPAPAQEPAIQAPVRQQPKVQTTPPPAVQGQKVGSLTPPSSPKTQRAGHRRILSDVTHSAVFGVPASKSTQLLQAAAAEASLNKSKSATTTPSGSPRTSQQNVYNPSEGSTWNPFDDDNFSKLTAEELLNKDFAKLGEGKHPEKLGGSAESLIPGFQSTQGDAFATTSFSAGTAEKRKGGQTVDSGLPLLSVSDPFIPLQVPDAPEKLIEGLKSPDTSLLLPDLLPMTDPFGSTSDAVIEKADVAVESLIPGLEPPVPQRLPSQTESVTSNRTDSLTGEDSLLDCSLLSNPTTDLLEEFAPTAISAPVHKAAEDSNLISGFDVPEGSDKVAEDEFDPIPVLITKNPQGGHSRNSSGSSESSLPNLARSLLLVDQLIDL
T7 sequence (P49137 whole entry): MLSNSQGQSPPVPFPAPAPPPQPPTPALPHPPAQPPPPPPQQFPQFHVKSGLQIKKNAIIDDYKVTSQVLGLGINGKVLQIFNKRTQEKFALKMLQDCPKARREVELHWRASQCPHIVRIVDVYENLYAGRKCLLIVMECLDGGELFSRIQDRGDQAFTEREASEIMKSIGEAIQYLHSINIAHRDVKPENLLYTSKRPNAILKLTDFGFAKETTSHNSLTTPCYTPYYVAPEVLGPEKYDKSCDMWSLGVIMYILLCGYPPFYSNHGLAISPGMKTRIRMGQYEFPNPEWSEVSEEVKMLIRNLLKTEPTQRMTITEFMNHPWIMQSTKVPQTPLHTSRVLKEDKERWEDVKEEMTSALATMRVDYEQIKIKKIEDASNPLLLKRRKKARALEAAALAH

SMILES	Inhibition (%) Target 1 (AAK1)	Inhibition (%) Target 2 (AAK1)	Inhibition (%) Mean value (AAK1)	Inhibition (%) Target 1 (FLT3)	Inhibition (%) Target 2 (FLT3)	Inhibition (%) Mean value (FLT3)	Inhibition (%) Target 1 (MET (cMet))	Inhibition (%) Target 2 (MET (cMet))	Inhibition (%) Mean value (MET (cMet))	Inhibition (%) Target 1 (FLT3 D835Y)	Inhibition (%) Target 2 (FLT3 D835Y)	Inhibition (%) Mean value (FLT3 D835Y)	Inhibition (%) Target 1 (GSK3A (GSK3 alpha))	Inhibition (%) Target 2 (GSK3A (GSK3 alpha))	Inhibition (%) Mean value (GSK3A (GSK3 alpha))	Inhibition (%) Target 1 (CAMK1 (CaMK1))	Inhibition (%) Target 2 (CAMK1 (CaMK1))	Inhibition (%) Mean value (CAMK1 (CaMK1))	Inhibition (%) Target 1 (MAPKAPK2)	Inhibition (%) Target 2 (MAPKAPK2)	other results
C[C@@H]1OCC2(CCN(c3ncc(Sc4ccnc(N5CC(C(C)(C)O)C5)c4Cl)nc3CO)CC2)[C@@H]1N [Example 12, 2-(1-(4-(5-((3S,4S)-4-amino-3-methyl-2-oxa-8-azaspiro[4.5]decan-8-yl)-6-(hydroxymethyl)pyrazin-2-ylthio)-3-chloropyridin-2-yl)azetidin-3-yl)propan-2-ol]	3%	0%	1%	11%	8%	9%	−1%	16%	7%	5%	6%	6%	9%	8%	8%	−9%	−16%	−12%	31%	27%	Inhibition (%) Mean value (MAPKAPK2): 29%; Inhibition (%) Target 1 (GSK3B (GSK3 beta)): 7%; Inhibition (%) Target 2 (GSK3B (GSK3 beta)): 7%; Inhibition (%) Mean value (GSK3B (GSK3 beta)): 7%; Inhibition (%) Target 1 (GRK4): 9%; Inhibition (%) Target 2 (GRK4): 7%; Inhibition (%) Mean value (GRK4): 8%
C[C@@H]1OCC2(CCN(c3cnc(Sc4ccnc(N)c4Cl)c(N)n3)CC2)[C@@H]1N [TNO-155, reference compound]	49%	46%	48%	96%	97%	97%	42%	40%	41%	71%	69%	70%	92%	87%	90%	55%	46%	51%	106%	107%	Inhibition (%) Mean value (MAPKAPK2): 106%; Inhibition (%) Target 1 (GSK3B (GSK3 beta)): 96%; Inhibition (%) Target 2 (GSK3B (GSK3 beta)): 96%; Inhibition (%) Mean value (GSK3B (GSK3 beta)): 96%; Inhibition (%) Target 1 (GRK4): 96%; Inhibition (%) Target 2 (GRK4): 95%; Inhibition (%) Mean value (GRK4): 95%
